{"source": "patent US12178800B2", "about": "“Sulforaphane-melatonin-like compound” (priority 2018, dated 2024)", "key": {"[1]": {"test_system": "irradiated skin of pigs", "assay": "Gamma-radiation-induced dermatitis in mini-pigs, clinical skin reaction score", "assay_type": "in vivo, Gottingen mini-pigs", "text": "Male Gottingen mini-pigs (mean weight, 19 kg; range, 18-20 kg; age, 6-7 months), obtained from Institute of Animal Breeding and Genetics, University of Gottingen, Germany, were used in these experiments. The mini-pigs were provided with tap water and commercial laboratory piglet chow from Purina Germany (Purina laboratory pig chow-5085) containing crude protein, fat, fiber, and ash, as well as calcium, phosphorus, and moisture (14.5, 4, 5, 8, 0.55, 1, and 14%, respectively). In addition, no antibiotic supplements were used. All animal experiments were performed in compliance to The German Animal Welfare Act.\nA formulation in accordance with embodiments of the present invention appropriate for topical administration was obtained by adding 200 mg of carbopol (Carbopol 934P; Lubrizol, USA) to 2.5 mL of distilled water and solubilizing 200 mg of 6OHM-6-HITC in 2 mL of ethanol. An appropriate amount of the ethanolic dispersion was transferred to the aqueous dispersion of carbopol. Methanol (1.25 mL) was mixed with 1 mL of ethanol and added to the 6OHM-6-HITC and carbopol mixture, which was gradually stirred, and carbopol was allowed to soak for 2 h. Triethanolamine (100 mg; Sigma-Aldrich, USA) was added to neutralize the carbopol solution and facilitate the formation of a gel, after which the pH was adjusted to 6.8. A vehicle cream was prepared using the same ingredients and identical methods as the cream, but 6OHM-6-HITC was omitted from the mixture. […] For topical treatment, 6OHM-6-HITC or the vehicle cream (concentration, 200 mg/cm^2) was spread on the irradiated skin of pigs twice daily for 35 days, and the first application was performed immediately after irradiation.\nTo observe the effects of gamma-radiation on the skin of mini-pigs (3 animals per group), the dorsal skin was irradiated. […]\nThe pigs were evaluated every week during the five weeks following the irradiation, and their skin reactions were scored using a clinical status scoring system. […]"}, "[2]": {"test_system": "Myeloperoxidase (MPO)", "assay": "Myeloperoxidase (MPO) activity in mouse tongues", "assay_type": "in vivo, ICR mice", "details": "12 days after irradiation", "text": "(§1) The scoring of oral mucositis was based on a modification of the method of Sonis et al. To assess the severity of oral mucositis, mice were anesthetized with isoflurane every day. The oral mucositis score was: 0=normal; 1=partial hyperemia, erythema and swelling; 2=overall hyperemia, erythema and swelling; 3=epidermolysis, hyperemia and erythema; 4=extensive epidermolysis and bleeding; 5=bleeding and abscesses. Myeloperoxidase (MPO) activity is a marker for neutrophils in inflamed tissue. MPO activity was measured in mouse tongues using a modification of the method of Chen et al. After mice had been killed by cervical dislocation 12 days after irradiation, tongue samples (n=10 per group) were removed and stored at −70° C. until required for assay. […] MPO activity was measured using a Microplate Reader (NJ-2300; Biotec, Tokyo, Japan) at 450 nm. MPO activity was calculated by measuring the slope of absorbance calibrated using MPO standards (Wako Biochemicals) and expressed as MPO/g tongue. […] TBARS levels were measured using the Microplate Reader (Biotec) at 540 nm. TBARS levels were calculated by measuring the slope of absorbance calibrated using TBARS standards and expressed as TBARS/g tongue. […] The number of TUNEL-positive cells on the tongue tips were counted and expressed as a percentage. […] Data were analyzed using one-way analysis of variance (ANOVA) followed by the Steel-Dwass test. […]"}, "[3]": {"test_system": "mouse tongues", "assay": "TUNEL staining of tongue sections (apoptosis)", "assay_type": "in vivo, ICR mice", "details": "12 days post-irradiation, control 23.7%", "text": "as §1"}}, "data": [{"smiles": "COc1cc2c(CCCCN=C=S)c[nH]c2cc1O", "note": "[6OHM-6-HITC]", "values": [{"measurement": "clinical changes of irradiated skin vs. vehicle-treated", "setting": "[1]; 1 week after 50 Gy gamma irradiation, topical twice daily", "value": "similar"}, {"measurement": "severity of skin reaction vs. vehicle-treated irradiation group", "setting": "[1]; 50 Gy gamma irradiation, topical twice daily for 35 days", "value": "decreased severity in the skin reaction"}, {"measurement": "time at which beneficial effects on the dermatitis appeared", "setting": "[1]; after 50 Gy gamma irradiation, topical twice daily", "value": 2, "unit": "weeks"}, {"measurement": "MPO activity vs. control group", "setting": "[2]; 30 mg/kg i.p.", "value": "significantly lower"}, {"measurement": "MPO activity vs. control group", "setting": "[2]; 300 mg/kg i.p.", "value": "significantly lower"}, {"measurement": "percentage of TUNEL-positive cells", "setting": "[3]; 30 mg/kg i.p.", "value": 9.9, "unit": "%"}, {"measurement": "percentage of TUNEL-positive cells", "setting": "[3]; 300 mg/kg i.p.", "value": 8.6, "unit": "%"}]}]}
